Reference: ChEMBL document CHEMBL3044784, “Molecular Basis of Resistance to s-Triazine Herbicides in Poa annua L. and Its Photosynthetic Properties under Different Light Conditions” (J Pestic Sci, 2001)
The source made the active and inactive calls. The calls are words filed in the database; no cut-off is given here.

How the values were obtained:
[1] = tested on: Poa annua; assay: Pre-emergence herbicidal activity against s-triazine-resistant Poa annua at 0.25 kg/ha after 14 days by pot test; assay type: functional, organism-based
[2] = tested on: Poa annua; assay: Pre-emergence herbicidal activity against s-triazine-resistant Poa annua at 0.5 kg/ha after 14 days by pot test; assay type: functional, organism-based
[3] = tested on: Poa annua; assay: Herbicidal activity against hydroponic culture of s-triazine-susceptible Poa annua at 1000 ppm after 14 days; assay type: functional, organism-based
[4] = tested on: Poa annua; assay: Herbicidal activity against hydroponic culture of s-triazine-susceptible Poa annua at 100 ppm after 14 days; assay type: functional, organism-based
[5] = tested on: Poa annua; assay: Pre-emergence herbicidal activity against s-triazine-resistant Poa annua at 1 kg/ha after 14 days by pot test; assay type: functional, organism-based
[6] = tested on: Poa annua; assay: Pre-emergence herbicidal activity against s-triazine-resistant Poa annua at 0.05 kg/ha after 14 days by pot test; assay type: functional, organism-based
[7] = tested on: Poa annua; assay: Herbicidal activity against hydroponic culture of s-triazine-resistant Poa annua at 0.1 ppm after 14 days; assay type: functional, organism-based
[8] = tested on: Poa annua; assay: Pre-emergence herbicidal activity against s-triazine-susceptible Poa annua at 0.5 kg/ha after 14 days by pot test; assay type: functional, organism-based
[9] = tested on: Poa annua; assay: Pre-emergence herbicidal activity against s-triazine-resistant Poa annua at 0.10 kg/ha after 14 days by pot test; assay type: functional, organism-based
[10] = tested on: Poa annua; assay: Pre-emergence herbicidal activity against s-triazine-susceptible Poa annua at 1 kg/ha after 14 days by pot test; assay type: functional, organism-based
[11] = tested on: Poa annua; assay: Herbicidal activity against hydroponic culture of s-triazine-resistant Poa annua at 1 ppm after 14 days; assay type: functional, organism-based
[12] = tested on: Poa annua; assay: Herbicidal activity against hydroponic culture of s-triazine-resistant Poa annua at 100 ppm after 14 days; assay type: functional, organism-based
[13] = tested on: Poa annua; assay: Herbicidal activity against hydroponic culture of s-triazine-resistant Poa annua at 10 ppm after 14 days; assay type: functional, organism-based
[14] = tested on: Poa annua; assay: Herbicidal activity against hydroponic culture of s-triazine-resistant Poa annua at 1000 ppm after 14 days; assay type: functional, organism-based
[15] = tested on: Poa annua; assay: Pre-emergence herbicidal activity against s-triazine-susceptible Poa annua at 0.05 kg/ha after 14 days by pot test; assay type: functional, organism-based
[16] = molecular target: T1, Photosystem Q(B) protein (Poa annua, UniProt Q9XQA6); assay: Inhibition of photosystem II in s-triazine-resistant Poa annua leaf thylakoid membrane assessed as reduction of photosynthetic electron transport; conditions: read-out: I50
[17] = molecular target: T1, Photosystem Q(B) protein; assay: Inhibition ofphotosystem II in s-triazine-susceptible Poa annua leaf thylakoid membrane assessed as reduction of photosynthetic electron transport; conditions: read-out: I50
[18] = molecular target: Photosystem Q(B) protein (Poa annua) (UniProt Q9XQA6); assay: Resistant ratio, ratio of I50 for photosystem II in s-triazine-resistant Poa annua leaf thylakoid membrane to I50 for photosystem II in s-triazine-susceptible Poa annua leaf thylakoid membrane
[19] = tested on: Poa annua; assay: Herbicidal activity against hydroponic culture of s-triazine-susceptible Poa annua at 10 ppm after 14 days; assay type: functional, organism-based
[20] = tested on: Poa annua; assay: Herbicidal activity against hydroponic culture of s-triazine-susceptible Poa annua at 0.1 ppm after 14 days; assay type: functional, organism-based
[21] = tested on: Poa annua; assay: Herbicidal activity against hydroponic culture of s-triazine-susceptible Poa annua at 1 ppm after 14 days; assay type: functional, organism-based

SMILES	Activity [1]	Activity [2]	Activity [3]	Activity [4]	Activity [5]	Activity [6]	Activity [7]	Activity [8]	Activity [9]	Activity [10]	Activity [11]	Activity [12]	Activity [13]	Activity [14]	IC50 [16]	IC50 [17]	Ratio [18]	further results
CCNc1nc(Cl)nc(NC(C)(C)C#N)n1	inactive	inactive	inactive	inactive	inactive	inactive	inactive	Active	inactive	Active	inactive	–	–	–	–	–	–	–
CCNc1nc(Cl)nc(NCC)n1	inactive	inactive	Active	–	inactive	inactive	inactive	inactive	inactive	Active	inactive	inactive	inactive	inactive	–	–	–	–
CCNc1nc(NCC)nc(SC)n1	inactive	inactive	Active	Active	inactive	inactive	inactive	–	inactive	–	inactive	–	–	–	–	–	–	Activity [15]: inactive
CSc1nc(NC(C)C)nc(NC(C)C)n1	inactive	inactive	Active	–	inactive	inactive	inactive	–	inactive	–	inactive	inactive	inactive	inactive	–	–	–	–
CCNc1nc(Cl)nc(NC(C)C)n1 [ATRAZINE]	inactive	inactive	Active	Active	inactive	inactive	inactive	Active	inactive	Active	inactive	inactive	inactive	–	> 100000 nM	160 nM	> 625	–
CN(C)C(=O)Nc1ccc(Cl)c(Cl)c1 [DCMU]	–	–	Active	Active	Active	–	inactive	Active	–	Active	–	Active	Active	Active	400 nM	130 nM	3.1	Activity [19]: Active; Activity [20]: inactive
CCC(C)c1cc([N+](=O)[O-])cc([N+](=O)[O-])c1O (centres undefined) [DINOSEB]	–	–	Active	Active	Active	–	inactive	–	–	–	–	Active	Active	Active	400 nM	4000 nM	0.1	Activity [21]: inactive; Activity [20]: inactive
O=c1[nH]c2c(c(=O)n1C1CCCCC1)CCC2 [LENACIL]	–	–	Active	–	–	inactive	inactive	Active	–	Active	inactive	inactive	inactive	inactive	20000 nM	1000 nM	20	–
